US20220402900A1, “1,2,4-OXADIAZOL-5-ONE DERIVATIVES FOR THE TREATMENT OF CANCER” (Basilea Pharmaceutica International AG, priority 2019, published 2022)

Legend:
[1] = target: T1, human TEAD2 (amino acids 217-447) (Homo sapiens, UniProt Q15562); assay: Thermal shift assay (TSA); type: binding; details: 3 μM recombinant TEAD2, compound 7 μM, shift vs DMSO control
T1 construct: human TEAD2 (amino acids 217-447); His-tag (N); purchased Proteros biostructures PR-0365; host or cells: E. coli
Experimental: The thermal shift assay (TSA) was utilized to characterize target engagement in vitro based on ligand-dependent thermal stabilization of the protein. N-terminally His-tagged human TEAD2 (amino acids 217-447) expressed and purified from E. coli was purchased from Proteros biostructures (cat no. PR-0365). The melting reactions were performed in white, 96 well qPCR plates (Roche Diagnostics, cat. no. 04 729 692 001) in 20 mM HEPES pH 7, 100 mM NaCl in the presence of 4×SYPRO orange (Sigma, cat. no. S5692). Each well contained 3 μM recombinant TEAD2 and either DMSO (control) or experimental compounds at a final concentration of 7 μM. The total volume was 20 μL and the final DMSO concentration was 1%. The plate was sealed and analyzed in a LightCycler 480 II (Roche Diagnostics) by continuously reading the fluorescence using the 465-580 nm filter set while heating from 25° C. to 95° C. using a linear gradient of 1° C./min. Melting temperatures were determined by numerical differentiation using the LightCycler Thermal Shift Analysis software (Roche Diagnostics). The shifts in melting temperature caused by experimental compounds compared to the control are expressed as ΔTm (Table 2).

[2] = system: TEAD reporter gene activity; assay: TEAD reporter gene assay (MCF7 TEAD reporter cell line); type: cell-based; details: Homo sapiens; TEAD luciferase reporter in MCF7 cells, 24 hours; read-out: IC50 TEAD RGA (converted)
Source text: A TEAD reporter cell line was purchased from BPS Bioscience (cat. no. 60618). It contains the firefly luciferase gene under control of TEAD responsive elements stably integrated into the human breast cancer MCF7 cells. In proliferating cells, a basal level of unphosphorylated YAP/TAZ resides in the nucleus and drives the TEAD-dependent expression of the luciferase reporter. The cells were cultivated as recommended by the supplier. Inhibition of TEAD reporter gene activity by experimental compounds was measured using white, clear-bottom, 96 well cell culture plates (Greiner Bio-One, cat. no. 655098). The cells were seeded at a density of 20,000 cells per well in 100 μL growth medium and the plates were incubated overnight at 37° C. with 5% CO2 prior to treatment. Experimental compounds were serially diluted in DMSO to 200× the desired final concentrations. 0.5 μL aliquots of DMSO or the test samples were then mixed into the wells and the cells were further incubated for 24 hours. Luminescence was then measured on a Synergy 4 reader (BioTek) using the ONE-Glo Luciferase Assay System (Promega, cat. no. E6120) according to the manufacturer's instructions. Relative inhibition values were calculated by normalizing the raw data using DMSO-treated cells (0% inhibition) and wells devoid of cells (100% inhibition). IC50 values were calculated by fitting concentration-response data to a sigmoidal 4-parameter logistic model.

T1 sequence (Q15562 217-447): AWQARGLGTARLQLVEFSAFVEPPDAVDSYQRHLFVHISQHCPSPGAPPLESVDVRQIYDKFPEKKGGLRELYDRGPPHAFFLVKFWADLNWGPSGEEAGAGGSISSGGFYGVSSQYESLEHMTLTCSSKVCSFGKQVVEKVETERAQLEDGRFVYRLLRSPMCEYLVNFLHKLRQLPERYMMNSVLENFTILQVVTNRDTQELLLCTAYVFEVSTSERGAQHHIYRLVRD

SMILES | ΔTm at 7 µM [1] | IC50 [2]
Nc1cnc(-c2noc(=O)[nH]2)c(Nc2ccc(C(F)(F)F)cc2)n1 [Example 36, 3-[5-amino-3-[4-(trifluoromethyl)anilino]pyrazin-2-yl]-4H-1,2,4-oxadiazol-5-one] | 3.5 °C | 149 nM
O=c1[nH]c(-c2nccnc2Nc2ccc(C3CCC3)cc2)no1 [Example 41, 3-[3-(4-cyclobutylanilino)pyrazin-2-yl]-4H-1,2,4-oxadiazol-5-one] | 12.5 °C | 6570 nM
N#CC1(c2ccc(Nc3nccnc3-c3noc(=O)[nH]3)cc2)CCC1 [Example 42, 1-[4-[[3-(5-oxo-4H-1,2,4-oxadiazol-3-yl)pyrazin-2-yl]amino]phenyl]cyclobutanecarbonitrile] | 5.3 °C | 711 nM
O=c1[nH]c(-c2nccnc2Nc2ccc(Cl)cc2)no1 [Example 43, 3-[3-(4-chloroanilino)pyrazin-2-yl]-4H-1,2,4-oxadiazol-5-one] | 6.6 °C | 930 nM
Nc1cnc(Nc2ccc(C(F)(F)F)cc2)c(-c2noc(=O)[nH]2)c1 [Example 45, 3-[5-amino-2-[4-(trifluoromethyl)anilino]-3-pyridyl]-4H-1,2,4-oxadiazol-5-one] | 6 °C | 1350 nM
O=c1[nH]c(-c2c(OCCO)ccnc2Nc2ccc(Cl)cc2)no1 [Example 48, 3-[2-(4-chloroanilino)-4-(2-hydroxyethoxy)-3-pyridyl]-4H-1,2,4-oxadiazol-5-one] | 1.9 °C | 507 nM
O=c1[nH]c(-c2c(Nc3ccc(C(F)(F)F)cc3)ncc3c2CCC3)no1 [Example 49, 3-[3-[4-(trifluoromethyl)anilino]-6,7-dihydro-5H-cyclopenta[c]pyridin-4-yl]-4H-1,2,4-oxadiazol-5-one] | 0.6 °C | 649 nM
O=c1[nH]c(-c2nccnc2Nc2ccc(S(F)(F)(F)(F)F)cc2)no1 [Example 50, 3-[3-[4-(pentafluoro-λ6-sulfanyl)anilino]pyrazin-2-yl]-4H-1,2,4-oxadiazol-5-one] | 12.2 °C | 37 nM
CC(C)(C)Oc1ccnc(Nc2ccc(C(F)(F)F)cc2)c1-c1noc(=O)[nH]1 [Example 53, 3-[4-tert-butoxy-2-[4-(trifluoromethyl)anilino]-3-pyridyl]-4H-1,2,4-oxadiazol-5-one] | 3.7 °C | 815 nM
NCCOc1ccnc(Nc2ccc(C(F)(F)F)cc2)c1-c1noc(=O)[nH]1 [Example 55, 3-[4-(2-aminoethoxy)-2-[4-(trifluoromethyl)anilino]-3-pyridyl]-4H-1,2,4-oxadiazol-5-one] | 1 °C | 281 nM
O=C(O)COc1ccnc(Nc2ccc(C(F)(F)F)cc2)c1-c1noc(=O)[nH]1 [Example 58, 2-[[3-(5-oxo-4H-1,2,4-oxadiazol-3-yl)-2-[4-(trifluoromethyl)anilino]-4-pyridyl]oxy]acetic acid] | 3 °C | 13700 nM
O=c1[nH]c(-c2c(OCCc3ccccn3)ccnc2Nc2ccc(C(F)(F)F)cc2)no1 [Example 61, 3-[4-[2-(2-pyridyl)ethoxy]-2-[4-(trifluoromethyl)anilino]-3-pyridyl]-4H-1,2,4-oxadiazol-5-one] | 2.9 °C | 147 nM
COCCOc1ccnc(Nc2ccc(C(F)(F)F)cc2)c1-c1noc(=O)[nH]1 [Example 62, 3-[4-(2-methoxyethoxy)-2-[4-(trifluoromethyl)anilino]-3-pyridyl]-4H-1,2,4-oxadiazol-5-one] | 5.5 °C | 61 nM

Next, values leading:

ΔTm at 7 µM [1] | IC50 [2] | SMILES
2.5 °C | 3830 nM | CC(=O)Nc1cnc(Nc2ccc(C(F)(F)F)cc2)c(-c2noc(=O)[nH]2)n1 [Example 35, N-[6-(5-oxo-4H-1,2,4-oxadiazol-3-yl)-5-[4-(trifluoromethyl)anilino]pyrazin-2-yl]acetamide]
12.1 °C | 188 nM | O=c1[nH]c(-c2nc3ccccc3nc2Nc2ccc(C(F)(F)F)cc2)no1 [Example 37, 3-[3-[4-(trifluoromethyl)anilino]quinoxalin-2-yl]-4H-1,2,4-oxadiazol-5-one]
12.6 °C | 39 nM | O=c1[nH]c(-c2ccccc2Nc2ccc(C(F)(F)F)cc2)no1 [Example 38, 3-[2-[4-(trifluoromethyl)anilino]phenyl]-4H-1,2,4-oxadiazol-5-one]
9.3 °C | 2820 nM | O=c1[nH]c(-c2nccnc2Nc2ccc(C3CC3)cc2)no1 [Example 39, 3-[3-(4-cyclopropylanilino)pyrazin-2-yl]-4H-1,2,4-oxadiazol-5-one]
13.4 °C | 109 nM | O=c1[nH]c(-c2nccnc2Nc2ccc(C3(C(F)(F)F)CC3)cc2)no1 [Example 40, 3-[3-[4-[1-(trifluoromethyl)cyclopropyl]anilino]pyrazin-2-yl]-4H-1,2,4-oxadiazol-5-one]
11.6 °C | 225 nM | O=c1[nH]c(-c2cc(Cl)cnc2Nc2ccc(C(F)(F)F)cc2)no1 [Example 44, 3-[5-chloro-2-[4-(trifluoromethyl)anilino]-3-pyridyl]-4H-1,2,4-oxadiazol-5-one]
7.1 °C | 407 nM | CNc1cnc(Nc2ccc(C(F)(F)F)cc2)c(-c2noc(=O)[nH]2)c1 [Example 46, 3-[5-(methylamino)-2-[4-(trifluoromethyl)anilino]-3-pyridyl]-4H-1,2,4-oxadiazol-5-one]
18 °C | 72 nM | Cc1cc(-c2noc(=O)[nH]2)c(Nc2ccc(C(F)(F)F)cc2)nc1C [Example 47, 3-[5,6-dimethyl-2-[4-(trifluoromethyl)anilino]-3-pyridyl]-4H-1,2,4-oxadiazol-5-one]
5.1 °C | 135 nM | O=c1[nH]c(-c2c(OCCO)ccnc2Nc2ccc(C(F)(F)F)cc2)no1 [Example 51, 3-[4-(2-hydroxyethoxy)-2-[4-(trifluoromethyl)anilino]-3-pyridyl]-4H-1,2,4-oxadiazol-5-one]
5.1 °C | 179 nM | CC(C)Oc1ccnc(Nc2ccc(C(F)(F)F)cc2)c1-c1noc(=O)[nH]1 [Example 52, 3-[4-isopropoxy-2-[4-(trifluoromethyl)anilino]-3-pyridyl]-4H-1,2,4-oxadiazol-5-one]
0.9 °C | 357 nM | O=c1[nH]c(-c2c(OCCNCCO)ccnc2Nc2ccc(C(F)(F)F)cc2)no1 [Example 54, 3-[4-[2-(2-hydroxyethylamino)ethoxy]-2-[4-(trifluoromethyl)anilino]-3-pyridyl]-4H-1,2,4-oxadiazol-5-one]
4.3 °C | 767 nM | CC(=O)NCCOc1ccnc(Nc2ccc(C(F)(F)F)cc2)c1-c1noc(=O)[nH]1 [Example 56, N-[2-[[3-(5-oxo-4H-1,2,4-oxadiazol-3-yl)-2-[4-(trifluoromethyl)anilino]-4-pyridyl]oxy]ethyl]acetamide]
4.1 °C | 388 nM | CS(=O)(=O)NCCOc1ccnc(Nc2ccc(C(F)(F)F)cc2)c1-c1noc(=O)[nH]1 [Example 57, N-[2-[[3-(5-oxo-4H-1,2,4-oxadiazol-3-yl)-2-[4-(trifluoromethyl)anilino]-4-pyridyl]oxy]ethyl]methanesulfonamide]
6.7 °C | 2750 nM | NC(=O)COc1ccnc(Nc2ccc(C(F)(F)F)cc2)c1-c1noc(=O)[nH]1 [Example 59, 2-[[3-(5-oxo-4H-1,2,4-oxadiazol-3-yl)-2-[4-(trifluoromethyl)anilino]-4-pyridyl]oxy]acetamide]
1.3 °C | 465 nM | O=c1[nH]c(-c2c(OCCN3CCOCC3)ccnc2Nc2ccc(C(F)(F)F)cc2)no1 [Example 60, 3-[4-(2-morpholinoethoxy)-2-[4-(trifluoromethyl)anilino]-3-pyridyl]-4H-1,2,4-oxadiazol-5-one]
3.4 °C | 1550 nM | CC1(COc2ccnc(Nc3ccc(C(F)(F)F)cc3)c2-c2noc(=O)[nH]2)CC1 [Example 63, 3-[4-[(1-methylcyclopropyl)methoxy]-2-[4-(trifluoromethyl)anilino]-3-pyridyl]-4H-1,2,4-oxadiazol-5-one]
4.2 °C | 268 nM | O=c1[nH]c(-c2c(OC3CCOCC3)ccnc2Nc2ccc(C(F)(F)F)cc2)no1 [Example 64, 3-[4-tetrahydropyran-4-yloxy-2-[4-(trifluoromethyl)anilino]-3-pyridyl]-4H-1,2,4-oxadiazol-5-one]
